Seven compounds from US12617797B2, “Substituted pyrazolo [1,5-a]pyrimidines having multimodal activity against pain” (ESTEVE PHARMACEUTICALS, S.A., priority 2020, dated 2026) can be followed below.

Some results are limits rather than exact numbers.

For experiment [1], the target named is T1, Human σ1 receptor (Homo sapiens, UniProt Q99720).
T1 construct: expressed in transfected cells; host or cells: HEK-293
In words: Human σ1 receptor radioligand assay ([3H](+)-pentazocine binding, transfected HEK-293 membranes). The note with it: binding to σ1 receptor expressed as Ki; + also covers inhibition between 1% and 50%; read-out: σ-1 binding. A digest of the protocol:
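Membranes (7 μg) were incubated with 5 nM [3H](+)-pentazocine in 50 mM Tris-HCl pH 8 for 120 min at 37° C. Non-specific binding was defined with 10 μM haloperidol. Values are % inhibition at 1 or 10 μM or Ki from five concentrations, read by filtration and scintillation counting.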

Experiment [2] has as its target Human α2δ-1 subunit of Cav2.2 calcium channel (Homo sapiens, UniProt P54289). In words: Human α2δ-1 subunit of Cav2.2 calcium channel assay ([3H]-gabapentin binding). Particulars: binding to the α2δ-1 subunit of voltage-gated calcium channels expressed as Ki; + also covers inhibition between 1% and 50%. Summed up:
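Membranes enriched in human α2δ-1 incubated with 15 nM [3H]-gabapentin in 10 mM Hepes-KOH pH 7.4, 60 min at 27 °C; nonspecific binding defined with 10 μM pregabalin. Filtration and scintillation counting; % inhibition at 1 or 10 μM, or Ki from five concentrations.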

Sequence of Human α2δ-1 subunit of Cav2.2 calcium channel (P54289 25-1103): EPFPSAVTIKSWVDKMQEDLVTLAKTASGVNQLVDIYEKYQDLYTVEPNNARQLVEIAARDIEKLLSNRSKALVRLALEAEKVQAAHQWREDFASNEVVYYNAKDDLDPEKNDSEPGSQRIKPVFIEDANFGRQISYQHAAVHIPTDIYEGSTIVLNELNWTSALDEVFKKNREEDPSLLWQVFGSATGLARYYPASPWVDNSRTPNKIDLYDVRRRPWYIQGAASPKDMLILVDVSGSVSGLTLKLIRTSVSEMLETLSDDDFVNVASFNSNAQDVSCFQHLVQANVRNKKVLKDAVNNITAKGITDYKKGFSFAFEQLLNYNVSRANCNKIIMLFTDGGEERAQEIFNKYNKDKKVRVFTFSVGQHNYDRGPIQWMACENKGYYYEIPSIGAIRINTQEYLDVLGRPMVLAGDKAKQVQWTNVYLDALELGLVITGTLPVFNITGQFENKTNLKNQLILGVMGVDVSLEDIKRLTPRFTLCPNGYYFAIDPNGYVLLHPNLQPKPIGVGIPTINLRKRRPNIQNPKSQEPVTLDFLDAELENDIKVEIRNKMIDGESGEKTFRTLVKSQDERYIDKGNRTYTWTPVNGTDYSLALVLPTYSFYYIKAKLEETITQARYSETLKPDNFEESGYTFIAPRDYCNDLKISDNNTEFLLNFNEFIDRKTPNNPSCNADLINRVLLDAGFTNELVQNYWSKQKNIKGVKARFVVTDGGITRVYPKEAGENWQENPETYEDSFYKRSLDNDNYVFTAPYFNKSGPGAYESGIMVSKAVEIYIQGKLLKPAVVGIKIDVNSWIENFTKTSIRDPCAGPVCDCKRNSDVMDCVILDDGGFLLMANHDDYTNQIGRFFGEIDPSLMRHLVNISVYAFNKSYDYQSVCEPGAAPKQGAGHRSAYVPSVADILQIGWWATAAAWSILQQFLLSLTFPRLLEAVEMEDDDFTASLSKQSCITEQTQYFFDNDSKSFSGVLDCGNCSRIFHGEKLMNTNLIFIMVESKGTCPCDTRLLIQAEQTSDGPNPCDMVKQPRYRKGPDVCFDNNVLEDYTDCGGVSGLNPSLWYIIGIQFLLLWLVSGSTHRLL
T1 sequence (Q99720 whole entry): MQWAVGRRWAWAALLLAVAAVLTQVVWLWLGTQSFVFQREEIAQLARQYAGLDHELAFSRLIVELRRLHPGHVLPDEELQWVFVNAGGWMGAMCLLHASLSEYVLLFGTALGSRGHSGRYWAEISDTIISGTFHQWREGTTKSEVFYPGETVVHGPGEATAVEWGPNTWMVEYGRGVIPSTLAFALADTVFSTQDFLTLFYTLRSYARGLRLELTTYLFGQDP

Take `COc1cc(-c2cc3nccc(C4CCCN(Cc5ccccc5)C4)n3n2)ccn1` (centres unmarked) [Example 32, 7-(1-Benzylpiperidin-3-yl)-2-(2-methoxypyridin-4-yl)pyrazolo[1,5-a]pyrimidine]: the results for the Ki in experiment [1] and in experiment [2] were over 1000 nM and over 5 µM, respectively.
For the compound `Cc1cc2nccc(C3CCCN(Cc4c(F)cccc4F)C3)n2n1` (centres unmarked) [Example 65, 7-(1-(2,6-Difluorobenzyl)piperidin-3-yl)-2-methylpyrazolo[1,5-a]pyrimidine], the Ki in experiment [1] is over 1000 nM; in experiment [2], 0.5 to 5 µM.
For the compound `Cc1nn2c(C3CCCN(Cc4ccc(C(F)(F)F)nc4)C3)ccnc2c1CNCC1CCOCC1` (centres unmarked) [Example 184, 1-(2-Methyl-7-(1-((6-(trifluoromethyl)pyridin-3-yl)methyl)piperidin-3-yl)pyrazolo[1,5-a]pyrimidin-3-yl)-N-((tetrahydro-2H-pyran-4-yl)methyl)methanamine], the Ki in experiment [1] was under 500 nM; in experiment [2], over 5 µM.
In the same order, the values of `Cc1nn2c(C3CCCN(Cc4ccccc4)C3)ccnc2c1CN(C)CC1CC1` (centres unmarked) [Example 234, 1-(7-(1-Benzylpiperidin-3-yl)-2-methylpyrazolo[1,5-a]pyrimidin-3-yl)-N-(cyclopropylmethyl)-N-methylmethanamine] are under 500 nM and 0.5 to 5 µM.
On to `Cc1cnc2c(-c3ccncc3)cnn2c1C1CCCN(Cc2ccccn2)C1` (centres unmarked) [Example 74, 6-Methyl-7-(1-(pyridin-2-ylmethyl)piperidin-3-yl)-3-(pyridin-4-yl)pyrazolo[1,5-a]pyrimidine], for which the Ki is over 1000 nM in experiment [1] and 0.5 to 5 µM in experiment [2].
Consider `Cc1nn2c(C3CCCN(Cc4ccccc4)C3)ccnc2c1-c1ccncc1` (centres unmarked) [Example 42, 7-(1-Benzylpiperidin-3-yl)-2-methyl-3-(pyridin-4-yl)pyrazolo[1,5-a]pyrimidine], for which the values for the Ki in experiment [1] and in experiment [2] were over 1000 nM and 0.5 to 5 µM, respectively.
In the same order, the values of `Cc1nn2c(C3CCCN(Cc4ccccn4)C3)ccnc2c1-c1ccncc1` (centres unmarked) [Example 72, 2-Methyl-7-(1-(pyridin-2-ylmethyl)piperidin-3-yl)-3-(pyridin-4-yl)pyrazolo[1,5-a]pyrimidine] are over 1000 nM and 0.5 to 5 µM.
